The source of these data is PMC11239830, “Synthetic macrolides overcoming MLSBK-resistant pathogens” (Cell Discovery, 2024).

Data set [1] deals with human ribosome. Also noted: method as in PMID 32601485. As to conditions: read-out: IC50, inhibition on human ribosome; cited from earlier work.
A short description of data set [2]: CCK-8 assay for cytotoxicity. In kind it is cell-based, human. As to conditions: human, HEK293T cells, HEK293T cell viability. The procedure: HepG2 cells (6 × 10^3) and HEK293T cells (4 × 10^3) were seeded into 96-well plates in 90 μL of DMEM medium containing 10% FBS per well. […] After overnight incubation, the test compound stock solution was diluted with DMEM medium containing 10% FBS to every target concentration, and 10 μL of each was added to each well. Three parallel experiments were set up for each compound. After incubation for 48 h, 10 μL of cell counting kit-8 (CCK-8) reagent was added to each well in sequence according to the manufacturer’s instructions. […] This experiment was independently repeated three times. The data were processed by GraphPad Prism.
(Tetrazolium assays rely on reduction of a dye to a coloured formazan, in cell work by metabolically active cells.)

Data set [3] relates to S. pneumoniae. In words: MIC, broth microdilution. In kind it is cell-based, Streptococcus pneumoniae. A digest of the protocol: (§1)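 Minimum inhibitory concentrations were measured by broth microdilution following CLSI guidelines. Plates were incubated at 37 °C for 16–20 h before results were read and recorded, and each determination was repeated at least three times.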
Data set [4] has as its system S. pyogenes. Nature of the data set: MIC, broth microdilution. In kind it is cell-based, Streptococcus pyogenes. In outline:
as §1
Background: Dilution methods test growth across graded concentrations, often in twofold steps.

For data set [5], the system named is WT S. aureus ribosomes. Nature of the data set: PURE in vitro translation inhibition assay. As to conditions: mean ± SD. Type of data set: biochemical, Staphylococcus aureus. The procedure: (§2) To validate the in vitro activity of our compounds, we employed an in vitro reconstituted E. coli Protein synthesis Using a Recombinant Elements (PURE) translation system, substituting E. coli ribosomes with the purified S. aureus ribosomes.
(§3) 5 μL of PURE reaction mix that translates a gene encoding the Nanoluc luciferase was set up in the presence or absence of tested compounds. Protein synthesis was initiated by incubating reactions at 37 °C for 60 min and stopped by placing on ice for 5 min. Luciferase activity was quantified using the Nano-Glo luciferase assay system and read on a GloMax 20/20 luminometer (Promega, USA). For each compound, the in vitro translation inhibition assay was performed in three biological triplicates over a range of concentrations from 0.001 μM to 1000 μM. A compound-free control was used to normalize luminescence measurements. The calculated luminescence percentages were plotted against compound concentrations on a semilog scale using GraphPad Prism.

For data set [6], the system named is 15B196 S. aureus ribosomes (A2058-methylated). In words: PURE in vitro translation inhibition assay. Type of data set: biochemical, Staphylococcus aureus. Conditions: mean ± SD. The method, then:
as §2, §3

Converted amounts (≈) assume the structure as drawn.

In the case of `COC(=O)c1c(OC)cc2cc3c(c(O)c2c1C)C(=O)[C@]1(OC)C(=O)C=C(OC)[C@@H](O)[C@]1(O)C3=O` [TcmX, tetracenomycin X], the IC50 in data set [1] was 10 µM.

The molecule `CC[C@H]1OC(=O)[C@H](C)[C@@H](O[C@H]2C[C@@](C)(OC)[C@@H](O)[C@H](C)O2)[C@H](C)[C@@H](O[C@@H]2O[C@H](C)C[C@H](N(C)C)[C@H]2O)[C@](C)(O)C[C@@H](C)C(=O)[C@H](C)[C@@H](O)[C@]1(C)O` [erythromycin, reference compound] had a CC50 at 48 h in data set [2] above 100 µM. The minimal inhibitory concentration (MIC) in data set [3] (S. pneumoniae 21Q352, Clinical, i-MLSB) stood at 64 µg/mL (≈ 87.2 µM); in data set [3] (S. pneumoniae 21Q353, Clinical, i-MLSB), 32 µg/mL (≈ 43.6 µM); in data set [3] (S. pneumoniae 21X435, Clinical), 0.03 µg/mL (≈ 0.0409 µM); in data set [3] (S. pneumoniae ATCC49619), 0.03 µg/mL (≈ 0.0409 µM); in data set [4] (S. pyogenes 01-968, Clinical, i-ermB) it was 1 µg/mL (≈ 1.36 µM); in data set [4] (S. pyogenes 12-207, Clinical, mef), 16 µg/mL (≈ 21.8 µM). This molecule also showed an MIC in data set [4] (S. pyogenes 21K003, Clinical, mef) of 16 µg/mL (≈ 21.8 µM). The IC50 in data set [5] was 180 ± 30 nM; in data set [6], above 10 µM.

By IC50 is commonly meant the point on the concentration scale where inhibition reaches its midpoint. As a reminder, the CC50 is the concentration at which the toxic effect on the cells reaches its halfway point. Low readings indicate harm at low concentration, high ones better tolerance by the cells. Usually MIC stands for the lowest concentration found to suppress growth. A high value points to weaker potency.
